According to patent US20110190503A1, “Thiazolopyridin-2-yloxy-phenyl and thiazolopyrazin-2-yloxy-phenyl amines as modulators of leukotriene A4 hydrolase” (Janssen Pharmaceutical NV, priority 2008, published 2011):
Structures can show the parent of a compound that is named as a salt.

Biological target: T1, recombinant human LTA4 hydrolase (rhLTA4H) (Homo sapiens, UniProt P09960)
T1 construct: made in house; host or cells: Spodoptera frugiperda (Sf-9) cells, recombinant baculovirus (pFastBac1)
T1 sequence (P09960 1-611): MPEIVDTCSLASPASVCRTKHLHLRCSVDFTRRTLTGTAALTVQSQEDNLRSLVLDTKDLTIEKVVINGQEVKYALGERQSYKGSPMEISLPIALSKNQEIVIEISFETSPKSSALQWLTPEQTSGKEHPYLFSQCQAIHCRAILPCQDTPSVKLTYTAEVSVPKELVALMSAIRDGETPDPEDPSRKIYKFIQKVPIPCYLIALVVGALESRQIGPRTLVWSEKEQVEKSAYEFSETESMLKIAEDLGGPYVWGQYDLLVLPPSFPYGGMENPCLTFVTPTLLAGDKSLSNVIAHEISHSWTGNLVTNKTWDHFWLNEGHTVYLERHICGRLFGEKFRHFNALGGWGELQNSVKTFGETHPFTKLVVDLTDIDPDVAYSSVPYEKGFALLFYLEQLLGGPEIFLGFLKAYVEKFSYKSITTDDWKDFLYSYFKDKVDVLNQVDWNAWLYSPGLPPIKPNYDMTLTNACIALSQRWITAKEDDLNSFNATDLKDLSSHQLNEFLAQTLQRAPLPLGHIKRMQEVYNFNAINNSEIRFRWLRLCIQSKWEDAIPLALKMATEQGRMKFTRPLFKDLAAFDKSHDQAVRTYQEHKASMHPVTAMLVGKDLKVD
Test: Recombinant human LTA4 hydrolase assay for LTA4 hydrolase inhibitor activity
Format: biochemical
Conditions: rhLTA4H, LTA4 substrate, LTB4 by immunoassay; single determination or average; read-out: IC50
Procedure: Assay 1: Recombinant Human LTA4 Hydrolase Assay for LTA4 Hydrolase Inhibitor Activity
Compounds of the present invention were tested for LTA4 hydrolase inhibitor activity against recombinant human LTA4 hydrolase (rhLTA4H). Vectors were prepared and used to express rhLTA4H essentially as follows: LTA4 hydrolase encoding DNA was amplified by polymerase chain reaction (PCR) using a human placental cDNA library as a template. […] The amplified 1.9 kb DNA fragment encoding LTA4 hydrolase was isolated and cloned into the pFastBac1 vector (Invitrogen). Recombinant baculovirus was generated as described by the manufacturer, and used to infect Spodoptera frugiperda (Sf-9) cells. […] The purified enzyme solution was adjusted to contain 0.29 mg/mL LTA4 hydrolase, 50 mM Tris (pH 8.0), 150 mM NaCl, 5 mM dithiothreitol, 50% glycerol, and EDTA-free Complete protease inhibitor cocktail (Roche).
LTA4 substrate was prepared from the methyl ester of LTA4 (Cayman Chemical) by treatment with 67 equiv of NaOH under nitrogen at rt for 40 min. The LTA4 substrate in its free acid form was kept frozen at −80° C. until needed. Each compound was diluted to different concentrations in assay buffer (from Assay Designs) containing 10% DMSO. A 25-μL aliquot of each compound dilution was incubated for 10 min at rt with an equal volume of assay buffer containing 10 ng of recombinant human LTA4H. The solution was then adjusted to 200 μL with assay buffer. […] Each reaction was carried out at rt for 30 min. The reaction was stopped by diluting 10 μL of the reaction mixture with 200 μL of assay buffer. LTB4 was quantified in the diluted sample by a commercially available enzyme-linked immunoassay (Cayman Chemical Co.), as recommended by the manufacturer. Positive controls, under essentially identical conditions but without addition of an inhibitor compound, and negative controls, containing all assay components except enzyme, were routinely run in each experiment. IC50 values were determined by nonlinear regression of the activity data at different compound concentrations using Graphpad Prism 4.0, one site binding competition.
The values presented here are the result of a single determination or an average of two or more determinations, as indicated in parentheses following each value. For compounds tested three or more times, the average value is followed by the standard deviation

| Compound | IC50 |
| --- | --- |
| CN(Cc1ccc(Oc2nc3ccncc3s2)cc1)C1CCCCC1 [Example 175, N-Methyl-N-[4-([1,3]thiazolo[5,4-c]pyridin-2-yloxy)benzyl]cyclohexanamine] | 791 nM |
| NC(=O)N1[C@@H]2CC[C@H]1CN(Cc1ccc(Oc3nc4cnccc4s3)cc1)C2 [Example 202, meso-3-[4-([1,3]Thiazolo[4,5-c]pyridin-2-yloxy)benzyl]-3,8-diazabicyclo[3.2.1]octane-8-carboxamide] | ~9000 nM |
| O=C(O)C1CCN(CCOc2ccc(Oc3nc4cccnc4s3)cc2)CC1 [Example 44, 1-{2-[4-([1,3]Thiazolo[5,4-b]pyridin-2-yloxy)phenoxy]ethyl}piperidine-4-carboxylic acid] | 660 nM |
| Clc1cnc2nc(Oc3ccc(CCN4CCC(N5CCCCC5)CC4)cc3)sc2c1 [Example 223, 1′-(2-{4-[(6-Chloro[1,3]thiazolo[4,5-b]pyridin-2-yl)oxy]phenyl}ethyl)-1,4′-bipiperidine] | 563 nM |
| c1cncc(OC2CCN(Cc3ccc(Oc4nc5ccncc5s4)cc3)CC2)c1 [Example 248, 2-(4-{[4-(Pyridin-3-yloxy)piperidin-1-yl]methyl}phenoxy)[1,3]thiazolo[5,4-c]pyridine] | 1160 nM |
| Clc1ccc(SC2CCN(CCOc3ccc(Oc4nc5ncccc5s4)cc3)CC2)cc1 [Example 136, 2-[4-(2-{4-[(4-Chlorophenyl)sulfanyl]piperidin-1-yl}ethoxy)phenoxy][1,3]thiazolo[4,5-b]pyridine] | 427 nM |
| CC(=O)N1CCCN(Cc2ccc(Oc3nc4ccncc4s3)cc2)CC1 [Example 226, 2-{4-[(4-Acetyl-1,4-diazepan-1-yl)methyl]phenoxy}[1,3]thiazolo[5,4-c]pyridine] | 1210 nM |
| CN1CCN(C(=O)C2CCN(Cc3ccc(Oc4nc5ccncc5s4)cc3)CC2)CC1 [Example 227, 2-[4-({4-[(4-Methylpiperazin-1-yl)carbonyl]piperidin-1-yl}methyl)phenoxy][1,3]thiazolo[5,4-c]pyridine] | 748 nM |
| CC(=O)N1C[C@@H]2C[C@H]1CN2CCOc1ccc(Oc2nc3cccnc3s2)cc1 [Example 20, 2-(4-{2-[(1S,4S)-5-Acetyl-2,5-diazabicyclo[2.2.1]hept-2-yl]ethoxy}phenoxy)[1,3]thiazolo[5,4-b]pyridine] | 130 nM |
| O=C(c1ccco1)N1CCN(CCOc2ccc(Oc3nc4ncc(Cl)cc4s3)cc2)CC1 [Example 147, 6-Chloro-2-(4-{2-[4-(furan-2-ylcarbonyl)piperazin-1-yl]ethoxy}phenoxy)[1,3]thiazolo[4,5-b]pyridine] | 252 nM |
| O=C(O)CN(Cc1ccccc1)Cc1ccc(Oc2nc3ncccc3s2)cc1 [Example 274, N-Benzyl-N-[4-([1,3]thiazolo[4,5-b]pyridin-2-yloxy)benzyl]glycine] | 919 nM |
| CC(=O)N(C)[C@@H]1C[C@H]2CC[C@@H](C1)N2Cc1ccc(Oc2nc3cccnc3s2)cc1 [Example 228, meso-N-Methyl-N-{(3-exo)-8-[4-([1,3]thiazolo[5,4-b]pyridin-2-yloxy)benzyl]-8-azabicyclo[3.2.1]oct-3-yl}acetamide] | 135 nM |
| NC(=O)N1C[C@@H]2C[C@H]1CN2CCOc1ccc(Oc2nc3cccnc3s2)cc1 [Example 21, (1S,4S)-5-{2-[4-([1,3]Thiazolo[5,4-b]pyridin-2-yloxy)phenoxy]ethyl}-2,5-diazabicyclo[2.2.1]heptane-2-carboxamide] | 160 nM |
| Cc1cnc2nc(Oc3ccc(CN4CCN(C5CCC5)CC4)cc3)sc2c1 [Example 183, 2-({4-[(4-Cyclobutylpiperazin-1-yl)methyl]phenyl}oxy)-6-methyl[1,3]thiazolo[4,5-b]pyridine] | 67 nM |
| c1ccc(CC2CCN(CCc3ccc(Oc4nc5ncccc5s4)cc3)CC2)cc1 [Example 63, 2-{4-[2-(4-Benzylpiperidin-1-yl)ethyl]phenoxy}[1,3]thiazolo[4,5-b]pyridine] | 16 nM |
| NC(=O)N[C@@H]1C[C@H]2CC[C@@H](C1)N2Cc1ccc(Oc2nc3ccncc3s2)cc1 [Example 200, meso-1-{(3-exo)-8-[4-([1,3]Thiazolo[5,4-c]pyridin-2-yloxy)benzyl]-8-azabicyclo[3.2.1]oct-3-yl}urea] | 374 nM |
| c1ccc2c(c1)CCCN2CCOc1ccc(Oc2nc3ncccc3s2)cc1 [Example 7, 1-{2-[4-([1,3]Thiazolo[4,5-b]pyridin-2-yloxy)phenoxy]ethyl}-1,2,3,4-tetrahydroquinoline] | 310 nM |
| O=C1CCCN1C1CCN(CCOc2ccc(Oc3nc4cccnc4s3)cc2)CC1 [Example 43, 1-(1-{2-[4-([1,3]Thiazolo[5,4-b]pyridin-2-yloxy)phenoxy]ethyl}piperidin-4-yl)pyrrolidin-2-one] | 140 nM |
| Cc1cnc2nc(Oc3ccc(CCN4CCC(C(=O)N5CCCC5)CC4)cc3)sc2c1 [Example 198, 6-Methyl-2-[(4-{2-[4-(pyrrolidin-1-ylcarbonyl)piperidin-1-yl]ethyl}phenyl)oxy][1,3]thiazolo[4,5-b]pyridine] | 175 nM |
| CC(=O)N1[C@@H]2CC[C@H]1C[C@H](NCc1ccc(Oc3nc4ncccc4s3)cc1)C2 [Example 170, meso-(3-exo)-8-Acetyl-N-{[4-([1,3]thiazolo[4,5-b]pyridin-2-yloxy)phenyl]methyl}-8-azabicyclo[3.2.1]octan-3-amine] | 29 nM |
| NC(=O)N1C[C@H]2C[C@@H]1CN2Cc1ccc(Oc2nc3ncc(Cl)cc3s2)cc1 [Example 191, (1R,4R)-5-({4-[(6-Chloro[1,3]thiazolo[4,5-b]pyridin-2-yl)oxy]phenyl}methyl)-2,5-diazabicyclo[2.2.1]heptane-2-carboxamide] | 72 nM |
| NCCCN(Cc1ccc(Oc2nc3ccncc3s2)cc1)CC1CC1 [Example 204, N-(Cyclopropylmethyl)-N-[4-([1,3]thiazolo[5,4-c]pyridin-2-yloxy)benzyl]propane-1,3-diamine hydrochloride] | 576 nM |
| Cc1ccnc2sc(Oc3ccc(CN4CCC(C(N)=O)CC4)cc3)nc12 [Example 286, 1-{4-[(7-Methyl[1,3]thiazolo[5,4-b]pyridin-2-yl)oxy]benzyl}piperidine-4-carboxamide] | > 10000 nM |
| c1ccc(OC2CCN(CCOc3ccc(Oc4nc5ncccc5s4)cc3)CC2)cc1 [Example 8, 2-{4-[2-(4-Phenoxypiperidin-1-yl)ethoxy]phenoxy}[1,3]thiazolo[4,5-b]pyridine] | 130 nM |
| Cc1ccnc2nc(Oc3ccc(OCCN4CCC(O)(c5ccccn5)CC4)cc3)sc12 [Example 158, 1-(2-{4-[(7-Methyl[1,3]thiazolo[4,5-b]pyridin-2-yl)oxy]phenoxy}ethyl)-4-pyridin-2-ylpiperidin-4-ol] | 194 nM |
| OC1(c2ccc(Cl)cc2)CCN(CCOc2ccc(Oc3nc4nccnc4s3)cc2)CC1 [Example 25, 4-(4-Chlorophenyl)-1-{2-[4-([1,3]thiazolo[4,5-b]pyrazin-2-yloxy)phenoxy]ethyl}piperidin-4-ol] | 160 nM |
| O=C(c1cccs1)N1CCN(Cc2ccc(Oc3nc4ncc(Cl)cc4s3)cc2)CC1 [Example 187, 6-Chloro-2-[(4-{[4-(2-thienylcarbonyl)piperazin-1-yl]methyl}phenyl)oxy][1,3]thiazolo[4,5-b]pyridine] | 290 nM |
| CC(=O)N1[C@@H]2CC[C@H]1CN(CCc1ccc(Oc3nc4nccc(C)c4s3)cc1)C2 [Example 209, meso-2-(4-{2-[8-Acetyl-3,8-diazabicyclo[3.2.1]oct-3-yl]ethyl}phenoxy)-7-methyl[1,3]thiazolo[4,5-b]pyridine] | 157 nM |
